Like-named read-outs stand apart in the source and are kept apart here.
Test: Plasma exposure (dried blood spot) after single oral dose
Type: in vivo
Conditions: male, Sprague Dawley, rat, whole blood (dried blood spot), po
Experimental: Male Sprague Dawley rats at 6 to 7 weeks were dosed orally by p.o. gavage with different doses of BTTQ formulated in 1% hydroxyethlycellulose (Dow Corning, Midland, MI, United States) (w/v), 0.25% polysorbate 80 (Sigma-Aldrich, St. Louis, MO, United States) (v/v), and 0.05% antifoam (v/v; Dow Corning, Midland, MI, United States) in purified water. Following dosing, ear temperature was measured by using a k-type thermocouple probe digital thermometer (Cole Parmer) every hour for 6 h and then at 24 h. Blood samples for plasma exposure measurement were obtained at the same time. Blood was collected via a tail snip directly into a 20-μL EDTA-coated capillary and immediately spotted onto a Whatman DMPK-C DBS card (GE Healthcare Bio-Sciences). Tail snips were performed by removing approximately 1 mm of the tail by using a scalpel. Blood flow was initiated by gentle squeezing of the tail. No analgesia or anesthesia was used during blood collections. A single sample and spot were collected per time point. The DBS cards were allowed to dry for approximately 2 h at room temperature, after which the cards were placed in a zip-top bag, stored, and shipped at ambient temperature.

[1] = 0.03 mg/kg, oral 0.03 mg/kg, FU 0.053, read-out: Unbound Concentration, Mean
[2] = 0.03 mg/kg, oral 0.03 mg/kg, dried blood spot, read-out: Concentration, Mean
[3] = 0.03 mg/kg, oral 0.03 mg/kg, FU 0.053, read-out: Unbound Concentration, individual animals
[4] = 0.03 mg/kg, oral 0.03 mg/kg, dried blood spot, read-out: Concentration, individual animals
[5] = 0.1 mg/kg, oral 0.1 mg/kg, FU 0.053, read-out: Unbound Concentration, Mean
[6] = 0.1 mg/kg, oral 0.1 mg/kg, FU 0.053, read-out: Unbound Concentration, individual animals
[7] = 0.1 mg/kg, oral 0.1 mg/kg, dried blood spot, read-out: Concentration, Mean
[8] = 0.1 mg/kg, oral 0.1 mg/kg, dried blood spot, read-out: Concentration, individual animals
[9] = 0.3 mg/kg, oral 0.3 mg/kg, FU 0.053, read-out: Unbound Concentration, Mean
[10] = 0.3 mg/kg, oral 0.3 mg/kg, FU 0.053, read-out: Unbound Concentration, individual animals
[11] = 0.3 mg/kg, oral 0.3 mg/kg, dried blood spot, read-out: Concentration, Mean
[12] = 0.3 mg/kg, oral 0.3 mg/kg, dried blood spot, read-out: Concentration, individual animals
[13] = 1 mg/kg, oral 1 mg/kg, FU 0.053, read-out: Unbound Concentration, Mean

concentration at 1 h [1]: 2.52 nM
concentration at 1 h [2]: 47.5 nM
concentration at 2 h [1]: 2.66 nM
concentration at 2 h [3]: 2.17 nM
concentration at 2 h [2]: 50.2 nM
concentration at 2 h [4]: 40.9 nM
concentration at 3 h [1]: 2.23 nM
concentration at 3 h [3]: 2.04 nM
concentration at 3 h [2]: 42.1 nM
concentration at 3 h [4]: 38.4 nM
concentration at 4 h [1]: 1.81 nM
concentration at 4 h [3]: 1.67 nM
concentration at 4 h [2]: 34.2 nM
concentration at 4 h [4]: 31.6 nM
concentration at 5 h [1]: 1.5 nM
concentration at 5 h [3]: 1.86 nM
concentration at 5 h [2]: 28.3 nM
concentration at 5 h [4]: 35.1 nM
concentration at 6 h [1]: 1.16 nM
concentration at 6 h [2]: 22 nM
concentration at 24 h [1]: 0 nM
concentration at 24 h [2]: 0 nM
concentration at 1 h [5]: 10.6 nM
concentration at 1 h [6]: 13.2 nM
concentration at 1 h [7]: 201 nM
concentration at 1 h [8]: 249 nM
concentration at 2 h [5]: 10 nM
concentration at 2 h [6]: 11.7 nM
concentration at 2 h [7]: 189 nM
concentration at 2 h [8]: 220 nM
concentration at 3 h [5]: 8.98 nM
concentration at 3 h [6]: 8.9 nM
concentration at 3 h [7]: 169 nM
concentration at 3 h [8]: 168 nM
concentration at 4 h [5]: 6.75 nM
concentration at 4 h [6]: 7.1 nM
concentration at 4 h [7]: 127 nM
concentration at 4 h [8]: 134 nM
concentration at 5 h [5]: 5.13 nM
concentration at 5 h [6]: 5.99 nM
concentration at 5 h [7]: 96.9 nM
concentration at 5 h [8]: 113 nM
concentration at 6 h [5]: 4.61 nM
concentration at 6 h [6]: 4.62 nM
concentration at 6 h [7]: 87 nM
concentration at 6 h [8]: 87.1 nM
concentration at 24 h [5]: 0.462 nM
concentration at 24 h [6]: 2.31 nM
concentration at 24 h [7]: 8.7 nM
concentration at 24 h [8]: 43.5 nM
concentration at 1 h [9]: 27.7 nM
concentration at 1 h [10]: 24.2 nM
concentration at 1 h [11]: 523 nM
concentration at 1 h [12]: 456 nM
concentration at 2 h [9]: 23.7 nM
concentration at 2 h [10]: 19.3 nM
concentration at 2 h [11]: 447 nM
concentration at 2 h [12]: 364 nM
concentration at 3 h [9]: 16.6 nM
concentration at 3 h [10]: 14.7 nM
concentration at 3 h [11]: 314 nM
concentration at 3 h [12]: 278 nM
concentration at 4 h [9]: 11.8 nM
concentration at 4 h [10]: 12.3 nM
concentration at 4 h [11]: 223 nM
concentration at 4 h [12]: 232 nM
concentration at 5 h [9]: 8.68 nM
concentration at 5 h [10]: 8.75 nM
concentration at 5 h [11]: 164 nM
concentration at 5 h [12]: 165 nM
concentration at 6 h [9]: 6.73 nM
concentration at 6 h [10]: 7.26 nM
concentration at 6 h [11]: 127 nM
concentration at 6 h [12]: 137 nM
concentration at 24 h [9]: 0 nM
concentration at 24 h [11]: 0 nM
concentration at 1 h [13]: 92.5 nM
concentration at 1 h (1 mg/kg, oral 1 mg/kg, dried blood spot, read-out: Concentration, Mean): 1750 nM
concentration at 2 h [13]: 87.6 nM
SMILES: O=c1c2nnc(C3(C4CC4)CC3)n2c2c(n1CC1CC1)CCCC2 [BTTQ, 1-[1,1′-bi(cyclopropyl)-1-yl]-5-(cyclopropylmethyl)-6,7,8,9-tetrahydro[1,2,4]triazolo[4,3-A]quinoxaline-4(5H)-one]
